Laboratory results published in patent US7465720B2, “Proteasome inhibiting β-lactam compounds” (President and Fellows of Harvard College, priority 2005, dated 2008).
Where two headings read alike, the source gives them in different places. Each block holds one compound with its values, some of them ahead of it. Where a SMILES comes first, the peptide text is derived from it. The star is where a group is joined. Cbz = O=C(OCc1ccccc1)*

Tests used:
20S proteasome = molecular target: T1, 20S proteasome (Homo sapiens, UniProt P28074); assay: Inactivation of 20S proteasome, hydrolysis of Suc-Leu-Leu-Val-Tyr-AMC followed by fluorescence; assay type: biochemical; conditions: for kinact/KI: read-out: kobs/[3]
T1 construct: purchased Boston Biochem
Procedure: Determination of the inhibitory activity of Compound 3 against the 20S proteasome (see reference 12) was carried out by a modification of the method reported by Dick et al. See reference 11. […] See reference 12. The progress of proteasome inactivation was determined by addition of Suc-LLVY-AMC to a 2 mL aliquot of the incubation experiment and monitoring the rate of production of free AMC by fluorescence spectrophotometry.
A plot of .ln(fluorescence/time) vs. time provided a linear decay whose slope is kobs for proteasome inactivation (FIG. 2). The rate of proteasome inactivation was proportional to the amount of Compound 3 present in the incubation experiments. The 10 μM and 30 μM time course experiments gave values for kobs/[3] as 7 M-1s-1 and 6.7 M-1s-1 respectively. In order to monitor background inactivation of 20S proteasome (see reference 13), each of these of experiments was run side by side with a control experiment identical in all respects except for the exclusion of Compound 3.
Inactivation of 20S proteasome by Compound 3. To separate 50 mL vials containing 12 mL of pH 7.9 buffer (20 mM hepes, 0.5 mM EDTA) was added 60 μL of a stock solution of 20S proteasome (20 mM Hepes, 0.5 mM EDTA, pH 7.9, 100 μg/mL) and aqueous sodium dodecylsulfate (10% w/v, 30 μL). The initial rate of hydrolysis of Suc-Leu-Leu-Val-TyrAMC was determined by addition of a solution of Suc-Leu-Leu-Val-Tyr-AMC (10 mM in DMSO, 10 μL) to a 2 mL aliquot of each of the above solutions. The initial rate of free AMC production was monitored at 37° C. by fluorescence spectrophotometry as described by Dick et al.* To one of the stock solutions was added a solution of the β-lactam 3 (10 mM in DMSO, 12 μL). Both solutions were incubated side by side at 37° C. Aliquots were removed at time points as assayed as above. The data for both the 10 μM experiment and an identical experiment utilizing 30 μM using a 30 mM stock solution of 3 are tabulated below. * See, McCormack, T.; Baumeister, W.; Grenier, L.; Moomaw, C.; Plamondon, L.; Pramanik, B.; Slaughter, C.; Soucy, F.; Stein, R.; Zuhl, F.; Dick, L., J. Biol. Chem. 1996, 272, 26103-26109.

[1] = Stability of Compound 3 in solution at pH 7; assay type: physicochemical
Text: Oxidative cleavage of the (S)(−)-(4-methoxyphenyl)-ethylamide protecting group in Compound 14 cleanly afforded the β-lactam, Compound 3, in 89% yield.

PC12 cells = conditions: cited from earlier work
[2] = Part 2, 30 μM of Compound 3, time 0 mm
[3] = Part 2, 30 μM of Compound 3, time 47 mm
[4] = Part 2, 30 μM of Compound 3, time 101 mm
[5] = Part 2, 30 μM of Compound 3, time 177 mm

melting point: 205 to 207 °C
remaining activity at 10 µM (20S proteasome; 10 μM 3, after 9.5 h, read-out: initial proteasome activity remaining): < 10%
% Initial Velocity (20S proteasome; 10 μM Compound 3, time 0 h): 100%
Experiment with 10 μM 3 (units F/s) (20S proteasome; 10 μM Compound 3, time 0 h): 0.59 units F/s
% Initial Velocity (20S proteasome; 10 μM Compound 3, time 1.5 h): 57%
Experiment with 10 μM 3 (units F/s) (20S proteasome; 10 μM Compound 3, time 1.5 h): 0.337 units F/s
% Initial Velocity (20S proteasome; 10 μM Compound 3, time 2.5 h): 45%
Experiment with 10 μM 3 (units F/s) (20S proteasome; 10 μM Compound 3, time 2.5 h): 0.267 units F/s
% Initial Velocity (20S proteasome; 10 μM Compound 3, time 4.5 h): 26%
Experiment with 10 μM 3 (units F/s) (20S proteasome; 10 μM Compound 3, time 4.5 h): 0.156 units F/s
% Initial Velocity (20S proteasome; 10 μM Compound 3, time 6.5 h): 15%
Experiment with 10 μM 3 (units F/s) (20S proteasome; 10 μM Compound 3, time 6.5 h): 0.09 units F/s
% Initial Velocity (20S proteasome; 10 μM Compound 3, time 9.5 h): 7.4%
Experiment with 10 μM 3 (units F/s) (20S proteasome; 10 μM Compound 3, time 9.5 h): 0.044 units F/s
remaining activity at 30 µM (20S proteasome; 30 μM 3, after 3 h, read-out: initial proteasome activity remaining): < 10%
% Initial Velocity (20S proteasome; [2]): 100%
Experiment with 10 μM 3 (units F/s) (20S proteasome; [2]): 0.526 units F/s
% Initial Velocity (20S proteasome; [3]): 44%
Experiment with 10 μM 3 (units F/s) (20S proteasome; [3]): .233 units F/s
% Initial Velocity (20S proteasome; [4]): 17%
Experiment with 10 μM 3 (units F/s) (20S proteasome; [4]): 0.090 units F/s
% Initial Velocity (20S proteasome; [5]): 7%
Experiment with 10 μM 3 (units F/s) (20S proteasome; [5]): 0.039 units F/s
kinact/KI (20S proteasome; pH 7.9, 10 μM time course): 7 M⁻¹ s⁻¹
kinact/KI (20S proteasome; pH 7.9, 30 μM time course): 6.7 M⁻¹ s⁻¹
stability compared with the corresponding β-lactone and Compounds 1 and 2 ([1]; found to date): much more stable
stability at pH 7 ([1]; pH 7, 23° C., 24 h): completely stable
SMILES: CC(C)[C@H](O)[C@@]12NC(=O)[C@H](CCCl)[C@@H]1NC2=O [Compound 3]

SMILES: CC(C)C[C@@H](C=O)NC(=O)[C@H](CC(C)C)NC(=O)[C@H](CC(C)C)NC(=O)OCc1ccccc1 [benzyloxycarbonyl (Z)-Leu-Leu-leucinal] (Cbz-Leu-Leu-Leu-aldehyde)
optimal concentration for inducing neurite outgrowth (PC12 cells): 30 nM
